Read-outs that look alike come from different tables or passages of the source.
Experiment: Plasma pharmacokinetics and food effect, part C
Format: in vivo, human
Details: 45 mg/day; for AUC(0-t) / Cmax / Tmax / AUC(0-inf) / half-life / Vd/F: human, plasma, oral; for Cmax: n = 15, read-out: Cmax, GM (% GCV); for Tmax: n = 15, read-out: Median tmax (range); for AUC(0-inf): n = 15, read-out: AUCinf, GM (% GCV); for half-life: n = 15, read-out: Mean t½ (% CV) (converted); for Vd/F: n = 15, read-out: Vss/F, GM (% GCV)
Protocol: Response was assessed using Response Evaluation Criteria in Solid Tumors (RECIST) v1.1[54] in patients with solid tumors, International Working Group criteria in patients with DLBCL[55], and Response Assessment in Neuro-Oncology (RANO) criteria[56] in patients with CNS tumors (astrocytoma and glioblastoma). For patients with BCC, the response was assessed using a combination of radiological assessment of target lesions per RECIST v1.1, digital clinical photography assessed per World Health Organization (WHO) criteria, and punch biopsies to confirm CR. PK parameters assessed included Cmax, tmax, AUC, t½, apparent clearance (CL/F), and apparent volume of distribution (Vz/F).
Serial blood samples for PK and pharmacodynamic analyses were collected for each dosing schedule after the first and last doses in cycle 1. Additional blood samples for assessment of the food effect on trotabresib PK in part C were collected during cycle 2. The food effect–evaluable population comprised all patients with adequate PK data to allow calculation of trotabresib AUC from time 0 (day 1) to day 22 from both the fed and fasted treatment periods and who had completed a 4-h post-dose fast during the fasted cycle or consumed the entire high-fat, high-calorie meal during the fed cycle and had received all trotabresib doses during both treatment periods.

Cn1cc(-c2cc(S(C)(=O)=O)ccc2OCC2CC2)c2ccccc2c1=O [trotabresib]
Clss/F, GM (% GCV) (day 4, fasted, n = 15): 2.60 (25.89) L/h | Median tmax (range) (day 4, fasted, n = 15): 1.50 (1.00–3.00) h | Clss/F, GM (% GCV) (day 4, fed, n = 15): 2.65 (28.52) L/h | AUC(0-t) (cycle 1 day 1, fasted, n = 14, read-out: AUC0–24, GM (% GCV)): 6650 ng·h/mL | Cmax (cycle 1 day 1, fasted): 560 ng/mL | Tmax (cycle 1 day 1, fasted): 1.55 h | AUC(0-t) (day 4, fasted, n = 15, read-out: AUC0–24, GM (% GCV)): 17300 ng·h/mL | AUC(0-inf) (day 4, fasted): 66500 ng·h/mL | AUC(0-t) (day 4, fasted, n = 15, read-out: AUClast, GM (% GCV)): 65100 ng·h/mL | Cmax (day 4, fasted): 1120 ng/mL | half-life (day 4, fasted): 69.1 h | Vd/F (day 4, fasted): 235 L | AUC(0-t) (day 4, fed, n = 14, read-out: AUC0–24, GM (% GCV)): 16800 ng·h/mL | AUC(0-inf) (day 4, fed): 67200 ng·h/mL | AUC(0-t) (day 4, fed, n = 15, read-out: AUClast, GM (% GCV)): 65600 ng·h/mL | Cmax (day 4, fed): 904 ng/mL | half-life (day 4, fed): 67.8 h | Tmax (day 4, fed): 4 h | Vd/F (day 4, fed): 228 L
